According to PubChem BioAssay AID493161 (The Scripps Research Institute Molecular Screening Center, 2011):
The source made the active and inactive calls. How the calls were made is not given here.

Test: cell survival reduction, dose-dependent – absorbance, serum-free or FCS media, cytotoxicity control for LYPLA1/LYPLA2 dual inhibitor project, dose response (AID 493161)

| SMILES | CC50 (serum-free media) | CC50 (with FCS) |
| --- | --- | --- |
| CCC1CCCCN1C(=O)n1ncc(C(O)(c2ccccc2)c2ccccc2)n1 (stereo unspecified) | > 50 µM (inactive) | > 50 µM (inactive) |
| CC(C)(O)c1cnn(C(=O)N2CCC(C(C)(C)C)CC2)n1 | > 9 µM | > 27 µM (inactive) |
| CC(C)(C)C1CCN(C(=O)n2ncc(C(O)(c3ccccc3)c3ccccc3)n2)CC1 | > 35 µM (inactive) | > 50 µM (inactive) |
